From US20210145838A1, “SELECTIVE PDE4D INHIBITORS AGAINST DEMYELINATING DISEASES” (Universiteit Hasselt, priority 2018, published 2021)

Tests used:
[1] = tested on: primary mouse oligodendrocyte precursor cells; test: In vitro differentiation of primary mouse OPCs (MBP/O4 immunostaining, MBP western blot); assay type: cell-based; conditions: for Relative MBP protein expression (ratio MBP to β-actin), western blot: treatment day 0, 2, 4, 6 days, compared to vehicle; for MBP protein expression (IHC), dose dependence / MBP/O4 ratio, dose dependence: Roflumilast 5, 10 μM, Gebr32a 0.5, 1, 5 μM, BPN14770 0.1-10 μM, day 6
Protocol: (§1) FIG. 3: Inhibition of PDE4 by roflumilast induces differentiation of primary mouse oligodendrocyte precursor cells. Primary mouse oligodendrocyte precursor cells (OPCs) were isolated from p0 C57bl6 pups using the shake off method at day 0. Primary OPCs (150.000 cells/condition) were cultured and stimulated with vehicle (0.1% DMSO) or the PDE4 inhibitor Roflumilast (5 μM, or 10 μM) in 0.1% DMSO. Treatment was repeated on day 2 and day 4, applying a 40% medium change. Cells were fixated at day 6 and stained for O4, a late OPC marker and MBP, an oligodendrocyte marker.
(§2) For western blot, primary OPCs (500.000 cells/condition) were cultured and stimulated with vehicle (0.1% DMSO) or the PDE4 inhibitor Roflumilast (5 μM) in 0.1% DMSO. Treatment was repeated on day 2 and day 4, applying a 40% medium change. […] IHC Data were analyzed using a non-parametric Kruskal-Wallis test with Dunn's multiple comparisons test was performed; p<0.05=*; n=4/group. Western blot data were analyzed using a non-parametric Mann-Withney test; p<0.05; n=4/group.
as §1, with “4:” for “3:”, “PDE4D” for “PDE4”, “Gebr32a” for “roflumilast”, “Gebr32a (0.5” for “Roflumilast (5”, “μM, 1 μM” for “μM,”, “5” for “10”
as §2, with “PDE4D” for “PDE4”, “Gebr32a” for “Roflumilast”
FIG. 5: Inhibition of PDE4D by BPN14770 induces differentiation of primary mouse oligodendrocyte precursor cells. Primary mouse oligodendrocyte precursor cells (OPCs) were isolated from p0 C57bl6 pups using the shake off method at day 0. Primary OPCs (150.000 cells/condition) were cultured and stimulated with vehicle (PBS) or the PDE4D inhibitor BPN14770 (0.1 μM, 0.3 μM, 1 μM, 3 μM and 10 μM) in PBS. Treatment was repeated on day 2 and day 4, applying a 40% medium change. Cells were fixated at day 6 and stained for O4, a late OPC marker and MBP, an oligodendrocyte marker.
Mixed glial cultures were prepared from postnatal day 2 mouse cerebral cortices of C57BLl/6JOIaHsd animals and used to generate OPC-enriched glial cultures by separating the OPCs from the astrocyte monolayer by orbital shaking followed by purification by differential adhesion to plastic. Purified OPCs were seeded on poly-L-lysine (5 μg/ml; Sigma-Aldrich, Bornem, Belgium) coated plates or glass cover slides for staining. Isolated OPCs were plated in 24-well plates (150,000 cells/well Greiner Bio-One, Frickenhausen, Germany) for immunocytochemistry or in 6-well plates (500,000 cells/well Greiner Bio-One, Frickenhausen, Germany) for western blot analyses. OPCs were induced to differentiate for 6 days with Roflumilast (5 μM and 10 μM), Gebr32 (0.5, 1 and 5 μM) or vehicle (DMSO) in SATO-medium supplemented with 2% horse serum (Sigma-Aldrich). Treatment was repeated on day 2 and 4, applying a 40% medium change. All plates were at 37° C. and 8.5% C02.
Western blot was used to assess the total MBP production by OPC treated with roflumilast or Gebr32a compare to the vehicle group. Equal amount of protein sample was separated by 10% sodium dodecyl sulfate polyacrylamide gel electrophorese and blotted onto a PVDF membrane (GE Healthcare, Buckinghamshore, UK). […]

[2] = tested on: mice with EAE; test: Experimental autoimmune encephalomyelitis (EAE) clinical score; assay type: in vivo, mouse; conditions: prophylactic, 27 days
Protocol: Fifty-six ten-weeks-old female C57bl6 mice were immunized in the flank and neck with 200 μg/mouse MOG35-55 peptide (Hooke) emulsified in Complete Freund's Adjuvant containing Mycobacterium tuberculosis. Immediately after immunization, treatment was started and lasted for 27 days. Treatment consisted of twice a day a s.c. injection with a 1% DMSO in 0.5% methylcellulose solution, roflumilast (0.3 mg/kg or 3 mg/kg in vehicle) or gebr32a (0.3 mg/kg in vehicle). All animals were sacrificed at day 27. Animals were neurologically scored for clinical signs on a daily basis using the following scores: 0=normal behavior, 0.5=distal limp tail, 1=complete limp tail, 2=limp tail and hind leg inhibition, 2.5=limp tail and weakness of hind legs, 3=limp tail and dragging of hind legs, 3.5=limp tail, complete paralysis of hind legs and animal is unable to right itself when placed on its side, 4=limp tail, complete hind leg paralysis and partial front leg paralysis, 4.5=limp tail, complete hind leg paralysis, partial front leg paralysis and no movement around the cage, 5=death.
Ten-weeks-old female C57bl6 mice (n=56) were immunized in the flank and neck with 200 μg/mouse MOG35-55 peptide (Hooke) emulsified in Complete Freund's Adjuvant containing Mycobacterium tuberculosis. Immediately after immunization, treatment was started and lasted for 27 days. […]

Row | SMILES | Relative MBP protein expression (ratio MBP to β-actin), western blot ([1]; 5 μM) | MBP protein expression (IHC), dose dependence [1] | MBP/O4 ratio, dose dependence [1] | Clinical score of EAE mice ([2]; 0.3 mg/kg s.c. twice a day) | Relative MBP protein expression, IHC ([1]; 5 μM, fixated at day 6, compared to vehicle) | Disease score of EAE mice, dose dependence ([2]; 0.3 mg/kg and 3 mg/kg s.c. twice a day)
1 | OC(CN1CCOCC1)Cn1ccc(-c2ccc(OC(F)F)c(OC3CCCC3)c2)n1 (stereo not drawn) [Gebr32a] | three-fold increase | dose-dependent increase | dose-dependent increase | no effect | – | –
2 | O=C(Nc1c(Cl)cncc1Cl)c1ccc(OC(F)F)c(OCC2CC2)c1 [roflumilast] | three-fold increased | increased dose-dependently | increased dose-dependently | – | three-fold increased | dose-dependent decrease in disease score
